One data set addresses T1, rat ACC1 (Rattus norvegicus, UniProt P11497).
T1 construct: purchased Huawei Pharmaceutical Co. Ltd (Shanghai, China)
Put plainly: ACC1 in vitro assay (Kinase-Glo Plus luminescence). The format is biochemical. Conditions: arithmetic means of three experiments, standard deviation in parentheses. The method, then:
(§1) To investigate the biological activities of the synthesized compounds, the in vitro inhibitory activities of these compounds against both rat ACC1 and ACC2 were evaluated according to the previous experimental method with some changes. The ACC1 and ACC2 enzymes were supplied by Huawei Pharmaceutical Co. Ltd (Shanghai, China). […] Then, the solution was diluted with buffer solution until it reached the required concentration (1 nM to 10 μM) and 5μL of the dilution was added to a 50 μL reaction mixture containing 30 mM HEPES, pH 7.4, 2 mM MgCl2, 2 mM sodium citrate, 1 mM DTT, 25 μM ATP, 16 mM NaHCO3 and 15 μM acetyl-CoA. All of the enzymatic reactions were conducted at 30 °C for 60 min. The assay was performed using Kinase-Glo Plus luminescence kinase assay kit (Beijing, China), which measures kinase activity by quantifying the amount of ATP remaining in solution following a kinase reaction. The luminescent signal from the assay […] with the amount of kinase activity. The same concentrations of DMSO were tested in parallel and used as background control. The inhibition percentage was expressed as the average value from three independent experiments.
For orientation: Kinase-Glo reads ATP consumption through a luciferase reaction.

For the next data set, the target named is T2, rat ACC2 (Rattus norvegicus, UniProt D3ZBE2).
T2 construct: purchased Huawei Pharmaceutical Co. Ltd (Shanghai, China)
Description: ACC2 in vitro assay (Kinase-Glo Plus luminescence). The note with it: arithmetic means of three experiments, standard deviation in parentheses. The format is biochemical. The method, then: as §1

Data set [1] relates to human embryonic lung fibroblast (HELF) cells. Description: In vitro cytotoxicity, MTT test. It is filed as cell-based. The note with it: HELF (WI-38) cells, 48 h incubation. The method, then:
In the cytotoxicity experiment, tetrazolium-based colorimetric assay (MTT test) was used to measure the cytotoxic effect of these selected potent compounds on normal cells. Human embryonic lung fibroblast cell line (HELF, WI-38) was purchased from the Cell Resource Center, Chinese Academy of Medical Sciences (Beijing, China). Briefly, cells (5000 per well) were collected and seeded in 96-well plates. After incubation for 24 h, cells were exposed to fresh medium containing various concentrations of test compound at 37 °C. After incubation for 48 h, 20 μL of MTT tetrazolium salt dissolved in phosphate buffered saline (PBS) at a concentration of 5 mg/mL was added to each well and incubated in a CO2 incubator for 4 h. The medium was then aspirated from each well and 150 μL of DMSO was added to dissolve formazan crystals. The absorbance of each well was measured by ELx808 Microplate Reader (BioTek, Winooski, VT, USA) at a test wavelength of 490 nm. TC50, the drug concentration which reduces the cell viability by 50% was calculated by the Logit method.

In a further data set the test system is ACC1. On the set-up: method as in PMID 12842871, PMID 25333641. Conditions: ACC1 from mammalia; read-out: IC50 against ACC1; cited from earlier work.
Another data set relates to ACC2. More on the design: method as in PMID 12842871, PMID 25333641. Conditions: ACC2 from mammalia; read-out: IC50 against ACC2; cited from earlier work.

Bounds are passed on as bounds.

T2 sequence (D3ZBE2 17-2459): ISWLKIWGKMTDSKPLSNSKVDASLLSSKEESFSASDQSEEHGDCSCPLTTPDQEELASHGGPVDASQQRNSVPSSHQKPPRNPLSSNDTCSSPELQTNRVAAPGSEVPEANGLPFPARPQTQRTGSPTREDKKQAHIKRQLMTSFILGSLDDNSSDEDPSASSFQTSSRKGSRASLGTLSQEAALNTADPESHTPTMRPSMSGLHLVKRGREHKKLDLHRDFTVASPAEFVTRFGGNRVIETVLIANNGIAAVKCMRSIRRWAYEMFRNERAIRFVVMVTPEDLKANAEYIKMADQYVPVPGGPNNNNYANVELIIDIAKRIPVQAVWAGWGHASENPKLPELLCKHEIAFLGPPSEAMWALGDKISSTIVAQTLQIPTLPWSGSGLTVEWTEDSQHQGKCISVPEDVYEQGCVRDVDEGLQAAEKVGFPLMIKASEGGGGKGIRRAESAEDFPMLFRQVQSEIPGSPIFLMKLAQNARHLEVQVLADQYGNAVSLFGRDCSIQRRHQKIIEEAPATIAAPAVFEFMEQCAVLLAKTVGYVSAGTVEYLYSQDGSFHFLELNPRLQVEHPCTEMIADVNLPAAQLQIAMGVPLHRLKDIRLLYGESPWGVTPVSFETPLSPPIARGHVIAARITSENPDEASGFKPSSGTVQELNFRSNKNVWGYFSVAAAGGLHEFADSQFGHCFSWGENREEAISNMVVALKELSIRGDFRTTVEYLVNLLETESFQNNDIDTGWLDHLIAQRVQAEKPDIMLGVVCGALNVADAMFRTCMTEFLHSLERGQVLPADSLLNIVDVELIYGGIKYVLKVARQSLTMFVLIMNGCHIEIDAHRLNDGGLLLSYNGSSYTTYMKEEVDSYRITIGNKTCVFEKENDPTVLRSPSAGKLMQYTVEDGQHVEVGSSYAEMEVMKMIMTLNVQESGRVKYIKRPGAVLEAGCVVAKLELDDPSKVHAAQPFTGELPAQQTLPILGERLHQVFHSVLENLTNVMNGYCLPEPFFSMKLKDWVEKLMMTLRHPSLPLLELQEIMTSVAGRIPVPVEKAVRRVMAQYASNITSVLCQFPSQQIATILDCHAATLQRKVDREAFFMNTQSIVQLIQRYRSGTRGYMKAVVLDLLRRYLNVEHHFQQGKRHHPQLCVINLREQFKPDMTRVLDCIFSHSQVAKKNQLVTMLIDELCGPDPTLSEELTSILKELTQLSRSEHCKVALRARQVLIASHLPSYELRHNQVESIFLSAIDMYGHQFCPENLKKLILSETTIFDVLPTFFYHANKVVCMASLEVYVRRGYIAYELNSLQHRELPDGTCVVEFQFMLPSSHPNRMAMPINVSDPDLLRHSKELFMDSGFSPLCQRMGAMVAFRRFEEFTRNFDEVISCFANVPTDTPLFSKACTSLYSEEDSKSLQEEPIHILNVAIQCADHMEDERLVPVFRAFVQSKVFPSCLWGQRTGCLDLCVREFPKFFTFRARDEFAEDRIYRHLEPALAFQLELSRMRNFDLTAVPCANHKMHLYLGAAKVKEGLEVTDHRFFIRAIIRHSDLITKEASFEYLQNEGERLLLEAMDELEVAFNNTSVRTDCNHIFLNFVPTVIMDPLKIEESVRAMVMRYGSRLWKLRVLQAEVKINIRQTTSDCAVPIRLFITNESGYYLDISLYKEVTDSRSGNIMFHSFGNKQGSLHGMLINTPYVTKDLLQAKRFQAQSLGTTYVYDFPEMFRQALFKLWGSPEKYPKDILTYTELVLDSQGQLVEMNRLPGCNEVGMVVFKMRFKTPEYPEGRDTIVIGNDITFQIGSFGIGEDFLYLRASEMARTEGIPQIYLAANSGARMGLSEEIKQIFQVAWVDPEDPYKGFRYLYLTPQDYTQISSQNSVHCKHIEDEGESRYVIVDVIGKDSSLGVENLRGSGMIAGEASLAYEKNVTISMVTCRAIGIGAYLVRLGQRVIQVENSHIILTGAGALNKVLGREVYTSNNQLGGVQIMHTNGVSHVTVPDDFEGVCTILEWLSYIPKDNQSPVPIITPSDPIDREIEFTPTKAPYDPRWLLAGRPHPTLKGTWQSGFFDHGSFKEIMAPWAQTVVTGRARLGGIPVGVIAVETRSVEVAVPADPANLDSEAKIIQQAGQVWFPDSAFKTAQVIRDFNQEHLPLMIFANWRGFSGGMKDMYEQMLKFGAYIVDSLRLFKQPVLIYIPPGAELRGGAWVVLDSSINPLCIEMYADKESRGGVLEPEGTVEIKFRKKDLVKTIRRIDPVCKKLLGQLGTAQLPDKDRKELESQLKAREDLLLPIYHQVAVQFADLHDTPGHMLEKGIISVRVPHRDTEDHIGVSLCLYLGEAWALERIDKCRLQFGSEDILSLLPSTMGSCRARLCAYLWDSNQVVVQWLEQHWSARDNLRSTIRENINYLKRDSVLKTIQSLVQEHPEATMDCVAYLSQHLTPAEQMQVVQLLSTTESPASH

The IC50 is the concentration that inhibits the measured activity by half. Take `COc1ccc(-c2cc(C(=O)N3CCC(N4CCC[C@@H](C(=O)N5CCOCC5)C4)CC3)c3ccccc3n2)cc1` [7a, (R)-(2-(4-Methoxyphenyl)quinolin-4-yl)(3-(morpholine-4-carbonyl)-[1,4′-bipiperidin]-1′-yl)methanone]: the IC50 was found to be 189 nM at rat ACC1 and 172 nM on rat ACC2. For the same molecule, the “TC50 (concentration which reduces the cell viability by 50%)” value in data set [1] is greater than 100000 nM.

As a reminder, the melting point is the temperature, or range, at which the solid turns liquid. `COc1ccc(-c2cc(C(=O)N3CCC(N4CCC[C@@H](C(=O)N(C)Cc5ccccc5)C4)CC3)c3ccccc3n2)cc1` [7b, (R)-N-Benzyl-1'-(2-(4-methoxyphenyl)quinoline-4-carbonyl)-N-methyl-[1,4'-bipiperidine]-3-carbox-amide] registered a melting point of 90 to 92 °C. Also, on rat ACC1, the IC50 was determined as 750 nM. Also, on rat ACC2, the IC50 came out at 360 nM. Moreover, in data set [1], the “TC50 (concentration which reduces the cell viability by 50%)” value was greater than 100000 nM.

Regarding `CCN(CC)C(=O)[C@@H]1CCCN(C2CCN(C(=O)c3cc(-c4ccc(OC)cc4)nc4ccccc34)CC2)C1` [7c, (R)-N,N-Diethyl-1'-(2-(4-methoxyphenyl)quinoline-4-carbonyl)-[1,4'-bipiperidine]-3-carboxamide], the melting point is 101 to 102 °C. In addition, the half-maximal inhibitory concentration (IC50) on rat ACC1 amounted to 940 nM. Further, the IC50 on rat ACC2 came out at 205 nM. Moreover, the “TC50 (concentration which reduces the cell viability by 50%)” value in data set [1] is greater than 100000 nM.

Consider `COc1ccc(-c2cc(C(=O)N3CCC(N4CCC[C@@H](C(=O)N5CCN(C)CC5)C4)CC3)c3ccccc3n2)cc1` [7d, (R)-(2-(4-Methoxyphenyl)quinolin-4-yl)(3-(4-methylpiperazine-1-carbonyl)-[1,4'-bipiperidin]-1'-yl)-methanone], for which the melting point is 108 to 110 °C. In addition, the IC50 on rat ACC1 stood at 620 nM. Also, the IC50 at rat ACC2 came out at 294 nM. Further, the “TC50 (concentration which reduces the cell viability by 50%)” value in data set [1] was greater than 100000 nM.

With `COc1ccc(-c2cc(C(=O)N3CCC(N4CCC[C@@H](C(=O)N5CCCC5)C4)CC3)c3ccccc3n2)cc1` [7e, (R)-(2-(4-Methoxyphenyl)quinolin-4-yl)(3-(pyrrolidine-1-carbonyl)-[1,4'-bipiperidin]-1'-yl)methanone], the IC50 on rat ACC1 is 750 nM; on rat ACC2, 382 nM. In addition, the “TC50 (concentration which reduces the cell viability by 50%)” value in data set [1] was greater than 100000 nM.

With `COc1ccc(-c2cc(C(=O)N3CCC(N4CCC[C@@H](C(=O)N5CCCCC5)C4)CC3)c3ccccc3n2)cc1` [7f, (R)-(2-(4-Methoxyphenyl)quinolin-4-yl)(3-(piperidine-1-carbonyl)-[1,4′-bipiperidin]-1′-yl)methanone], the melting point lay in the range of 89 to 91 °C. Also, the IC50 on rat ACC1 is greater than 1000 nM. Also, at rat ACC2, the IC50 is 920 nM.

For the molecule `O=C(c1cc(-c2ccccc2)nc2ccccc12)N1CCC(N2CCC[C@@H](C(=O)N3CCOCC3)C2)CC1` [7g, (R)-(3-(Morpholino-4-carbonyl)-[1,4'-bipiperidin]-1'-yl)(2-phenylquinolin-4-yl)methanone], the melting point lay within 92 to 93 °C. Moreover, the IC50 at rat ACC1 was 860 nM. Further, on rat ACC2, the IC50 is 810 nM. Also, the “TC50 (concentration which reduces the cell viability by 50%)” value in data set [1] is greater than 100000 nM.

`O=C(c1cc(-c2ccc(Cl)cc2)nc2ccccc12)N1CCC(N2CCC[C@@H](C(=O)N3CCOCC3)C2)CC1` [7h, (R)-(2-(4-Chlorophenyl)quinolin-4-yl)(3-(morpholine-4-carbonyl)-[1,4'-bipiperidin]-1'-yl)methanone] registered a melting point of 87 to 89 °C. Besides, on rat ACC1, the IC50 was greater than 1000 nM. Also, the IC50 at rat ACC2 was greater than 1000 nM.

Regarding `O=C(c1cc(-c2ccccc2Cl)nc2ccccc12)N1CCC(N2CCC[C@@H](C(=O)N3CCOCC3)C2)CC1` [7i, (R)-(2-(2-Chlorophenyl)quinolin-4-yl)(3-(morpholine-4-carbonyl)-[1,4'-bipiperidin]-1'-yl)methanone], the IC50 at rat ACC1 and at rat ACC2 was greater than 1000 nM throughout.

For the molecule `COc1ccc(-c2cc(C(=O)N3CCC4(CC3)CC(=O)c3ccccc3O4)c3ccccc3n2)cc1` [12a, 1'-(2-(4-Methoxyphenyl)quinoline-4-carbonyl)spiro[chroman-2,4'-piperidin]-4-one], the IC50 came out at 600 nM on rat ACC1 and 650 nM on rat ACC2. Further, the “TC50 (concentration which reduces the cell viability by 50%)” value in data set [1] was greater than 100000 nM.

For the molecule `COc1ccc(-c2cc(C(=O)N3CCC4(CC3)CC(=O)c3ccccc3O4)c3ccccc3n2)cc1OC` [12b, 1'-(2-(3,4-Dimethoxyphenyl)quinoline-4-carbonyl)spiro[chroman-2,4'-piperidin]-4-one], the IC50 on rat ACC1 is 760 nM; at rat ACC2 it was 820 nM. For the same molecule, the “TC50 (concentration which reduces the cell viability by 50%)” value in data set [1] was greater than 100000 nM.

With `Cc1ccccc1-c1cc(C(=O)N2CCC3(CC2)CC(=O)c2ccccc2O3)c2ccccc2n1` [12c, 1'-(2-(o-Tolyl)quinoline-4-carbonyl)spiro[chroman-2,4'-piperidin]-4-one], the IC50 at rat ACC1 and on rat ACC2 was greater than 1000 nM in each case.

Regarding `O=C1CC2(CCN(C(=O)c3cc(-c4ccccc4Cl)nc4ccccc34)CC2)Oc2ccccc21` [12d, 1'-(2-(2-Chlorophenyl)quinoline-4-carbonyl)spiro[chroman-2,4'-piperidin]-4-one], the IC50 is greater than 1000 nM at rat ACC1 and 940 nM at rat ACC2.

Take `O=C1CC2(CCN(C(=O)c3cc(-c4ccc(Cl)cc4)nc4ccccc34)CC2)Oc2ccccc21` [12e, 1'-(2-(4-Chlorophenyl)quinoline-4-carbonyl)spiro[chroman-2,4'-piperidin]-4-one]: the IC50 on rat ACC1 and on rat ACC2 was greater than 1000 nM each time.

As for `O=C1CC2(CCN(C(=O)c3cc(Cl)nc4ccccc34)CC2)Oc2ccccc21` [12f, 1'-(2-Chloroquinoline-4-carbonyl)spiro[chroman-2,4'-piperidin]-4-one], the IC50 on rat ACC1 and at rat ACC2 was greater than 1000 nM in each case.

On to `O=C1CC2(CCN(C(=O)c3cc(N4CCOCC4)nc4ccccc34)CC2)Oc2ccccc21` [12g, 1'-(2-Morpholinoquinoline-4-carbonyl)spiro[chroman-2,4'-piperidin]-4-one], for which the melting point lay in the range of 138 to 140 °C. In addition, the IC50 at rat ACC1 is greater than 1000 nM. Besides, the IC50 at rat ACC2 was greater than 1000 nM.

For `O=C(c1c2ccccc2cc2ccccc12)N1CCC(N2CCC[C@@H](C(=O)N3CCOCC3)C2)CC1` [CP-640186, reference compound], the IC50 was 185 nM at rat ACC2, roughly 50 nM with ACC1 and roughly 50 nM in the data set on ACC2. Moreover, the “TC50 (concentration which reduces the cell viability by 50%)” value in data set [1] was greater than 100000 nM.
